Test results as given in PMC8242077, “Allosteric drug transport mechanism of multidrug transporter AcrB” (Nature Communications, 2021).

Molecular target: T1, AcrB (Escherichia coli, UniProt P31224)
T1 construct: full-length, His-tagged (pET24acrBHis), from E. coli C43(DE3) delta-acrAB; homotrimer, DDM-solubilised; crystallised with DARPins
Assay: X-ray co-crystal structure
Assay type: binding
Conditions: DARPin chaperone

T1 sequence (P31224 whole entry): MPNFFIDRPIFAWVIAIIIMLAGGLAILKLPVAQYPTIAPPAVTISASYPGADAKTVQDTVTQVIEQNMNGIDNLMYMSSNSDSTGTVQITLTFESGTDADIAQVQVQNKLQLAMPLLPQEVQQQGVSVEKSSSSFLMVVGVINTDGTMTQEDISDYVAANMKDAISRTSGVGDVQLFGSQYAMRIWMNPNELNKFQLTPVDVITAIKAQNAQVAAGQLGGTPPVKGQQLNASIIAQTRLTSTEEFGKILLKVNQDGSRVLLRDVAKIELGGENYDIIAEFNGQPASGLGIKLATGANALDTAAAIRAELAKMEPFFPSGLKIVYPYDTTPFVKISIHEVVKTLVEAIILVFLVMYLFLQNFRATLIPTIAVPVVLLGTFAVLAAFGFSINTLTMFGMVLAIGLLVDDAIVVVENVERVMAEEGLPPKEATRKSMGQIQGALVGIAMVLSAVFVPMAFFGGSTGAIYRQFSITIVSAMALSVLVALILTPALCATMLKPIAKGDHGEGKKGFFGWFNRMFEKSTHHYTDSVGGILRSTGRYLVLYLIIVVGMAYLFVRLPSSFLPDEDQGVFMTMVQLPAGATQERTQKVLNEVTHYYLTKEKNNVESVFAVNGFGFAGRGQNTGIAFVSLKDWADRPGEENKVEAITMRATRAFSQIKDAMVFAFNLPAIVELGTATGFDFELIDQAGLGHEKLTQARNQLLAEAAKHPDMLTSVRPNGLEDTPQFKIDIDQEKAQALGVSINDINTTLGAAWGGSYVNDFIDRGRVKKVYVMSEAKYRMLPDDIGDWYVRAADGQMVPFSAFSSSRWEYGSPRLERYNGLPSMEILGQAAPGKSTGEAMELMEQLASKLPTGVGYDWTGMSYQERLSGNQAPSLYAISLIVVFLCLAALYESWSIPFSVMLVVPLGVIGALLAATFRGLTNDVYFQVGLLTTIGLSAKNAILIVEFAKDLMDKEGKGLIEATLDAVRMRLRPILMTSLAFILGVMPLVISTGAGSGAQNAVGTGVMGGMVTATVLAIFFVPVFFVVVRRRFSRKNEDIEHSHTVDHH

Row | Structure (SMILES) | X-ray co-crystal structure (access pocket of L protomer, crystallised with 3 mM rifampicin) | X-ray co-crystal structure (T protomer: TMD-BP, TM1/TM2 groove and TM7/TM8 groove, co-crystallised with 1 mM each fusidic acid, erythromycin, linezolid, oxacillin)
1 | CO[C@H]1/C=C/O[C@@]2(C)Oc3c(C)c(O)c4c(O)c(c(C=O)c(O)c4c3C2=O)NC(=O)/C(C)=C\C=C\[C@H](C)[C@H](O)[C@@H](C)[C@@H](O)[C@@H](C)[C@H](OC(C)=O)[C@@H]1C [3-formylrifamycin SV] | co-crystal AcrB/3-formylrifamycin SV (3-FOR) structure | –
2 | CC(=O)O[C@H]1C[C@@]2(C)[C@@H](C[C@@H](O)[C@H]3[C@@]4(C)CC[C@@H](O)[C@@H](C)[C@@H]4CC[C@@]32C)/C1=C(\CCC=C(C)C)C(=O)O [fusidic acid] | – | co-structure with FUA bound to a deep concave crevice surrounded by TM2, TM4, TM10-12
